Results taken from PubChem BioAssay (NCI).
Where “and” joins values, the source holds several entries; their conditions need not be identical. Equal entries are not always repeated.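 How tested: cells in 96-well plates exposed to compound for 48 hours at five concentrations. GI50 = concentration required for 50% inhibition of growth. TGI denotes the concentration required for complete inhibition of growth.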

Assays:
Assay in all cases: growth of human tumour cells (NCI), 48 h
[1] = system: 786-0 renal
[2] = system: A549 NSCLC
[3] = system: HCC-2998 colon
[4] = system: HCT-15 colon
[5] = system: HOP-92 NSCLC
[6] = system: KM12 colon
[7] = system: MCF7 breast
[8] = system: MDA-MB-231 breast
[9] = system: SR leukemia
[10] = system: CCRF-CEM leukemia

SMILES | GI50 [1] [µM] | TGI [1] | GI50 [2] [µM] | TGI [2] | GI50 [3] [µM] | TGI [3] | GI50 [4] [µM] | TGI [4] | GI50 [5] [µM] | TGI [5] | GI50 [6] [µM] | TGI [6] [µM] | GI50 [7] [µM] | TGI [7] | GI50 [8] [µM] | TGI [8] | GI50 [9] [µM] | TGI [9] | GI50 [10] [µM] | TGI [10] [µM]
CCCCCCCCCCCCNC(=O)[C@H]1CSC(c2ccsc2)N1 (stereo partly drawn) | 0.916 | 1.65 µM | 6.77 | 13.7 µM | 0.955 | 2.15 µM | 0.883 | 1.69 µM | 1.01 | 2.02 µM | 0.868 | 1.64 | 0.879 | 1.71 µM | 0.946 | 1.74 µM | 0.882 | 2.07 µM | – | –
COc1ccc(-c2nn(-c3cccc(Cl)c3)cc2/C=C2\C(=N)N(c3ccccc3)N=C2N)cc1 | 1.35 | 29.9 µM | 0.54 | > 82.2 µM | 0.627 | 4.42 µM | 0.489 | 26 µM | 22.4 | > 81.4 µM | 0.2 | 1.79 | 2.2 | 33.5 µM | 1.25 | 28.7 µM | 1.04 | 15.1 µM | 0.655 | > 58.7
CNc1ccc(N=Nc2cccc3ncccc23)cc1 | > 88.4 | > 100 µM | 50.9 | > 100 µM | 33.5 | > 100 µM | 16.1 | > 100 µM | 24.3 | > 100 µM | 34.3 | > 100 | 0.0261 | > 100 µM | 7.47 | > 100 µM | 16.1 | > 88.7 µM | > 24 | > 100
COc1ccccc1-c1nccc(COc2ccccc2C[C@@H](Oc2ncnc3sc(-c4ccc(F)cc4)c(-c4ccc(OCCN5CCN(C)CC5)c(Cl)c4C)c23)C(=O)O)n1 | 2.01 | 4.2 µM | 10 | 31.7 µM | 1.31 | 2.78 µM | 5.82 | 16.4 µM | 1.41 | 3.27 µM | 3.33 | 12.1 | 0.0786 | 1.95 µM | 1.61 | 3.29 µM | 0.034 | 0.714 µM | 0.804 | > 35.7
COc1cccc(C2CC(=O)Nc3cc4c(cc32)CCC4)c1OC (stereo not drawn) | 4.84 | 27.9 µM | 0.859 | > 33.8 µM | 7.56 | 28.1 µM | 3.63 | 25.8 µM | 0.758 | 7.83 µM | 4.21 | 18.6 | 3.22 | 18.4 µM | 6.17 | 39.5 µM | 2.87 | 10.8 µM | 2.28 | 7.08
CC(=O)OC1Oc2cc(C)c(C)cc2-c2oc(=O)c(-c3ccccc3)cc21 (stereo not drawn) | 0.429 | 24.8 µM | 0.608 | > 53.8 µM | 0.971 | > 30.8 µM | 0.323 | > 100 µM | 1.98 | 61.8 µM | 0.307 | 11.8 | 0.28 | 27.5 µM | 0.584 | 30.9 µM | 0.215 | > 100 µM | 0.364 | > 100
Cc1cc(C(=O)Nc2cc(Nc3ncccc3-c3ncnc4nc[nH]c34)ccc2F)cc(C(C)(C)C#N)c1 | 13.9 | > 100 µM | 3.77 | > 100 µM | 0.415 | > 78.9 µM | 2.97 | > 100 µM | 0.145 | 1.45 µM | 2.9 | > 100 | 5.07 | > 100 µM | 0.123 | 5.36 µM | 1.99 | 45.3 µM | 3.47 | > 100
CCCC(=O)Nc1cn(COC)c(C(=O)N2C[C@H]3C[C@@]34C2=CC(=O)c2[nH]cc(C)c24)n1 | 1.98 | – | – | 50 µM and > 100 µM | 1.89 | 9.14 µM and 6.59 µM | – | 50 µM and 72.2 µM | 5.12 | 26.8 µM and 31.4 µM | 8.81 | > 100 | 3.53 | 50 µM and > 100 µM | 10.7 | 39.7 µM and > 100 µM | – | > 100 µM | 0.555 | –
COc1ccc(-c2nn(-c3cccc(Cl)c3)cc2-c2cc(-c3cccs3)no2)cc1 | 3.39 | > 100 µM | 3.56 | 24.5 µM | 3.47 | 14.6 µM | 4.48 | 32.9 µM | 1.61 | 8.13 µM | 2.98 | 11.1 | 3.53 | 16.9 µM | 3.08 | 16.9 µM | 3.03 | 12.1 µM | 3.84 | > 100
COC(=O)C1=C(C(=O)OC)C(C(=O)OC)C(C(=O)OC)C(C(=O)OC)(C(=O)OC)C(C(=O)OC)=C1C(=O)OC (stereo not drawn) | – | 26.3 µM | – | 46.4 µM | – | 31 µM | – | 21.2 µM | – | 18.4 µM | – | 31.3 | – | 33.6 µM | – | 40.1 µM | – | 3.34 µM | – | 8.72
Cc1cc(Nc2cc(N3CCN(C)CC3)nc(C#Cc3ccccc3)n2)n[nH]1 | 3.13 | 14.2 µM | 2.81 | 13.3 µM | 2.71 | 13.1 µM | 2.23 | 15.5 µM | 0.843 | 4.84 µM | 0.35 | 11.7 | 2.31 | 13.1 µM | 3.82 | 16.5 µM | 3.47 | 20.4 µM | 6.89 | > 69.5
C=C1C(=O)C23CC1CCC2C12CO[C@@]3(O)[C@@H](O)C1C(C)(C)C=CC2=O (stereo partly drawn) | 1.75 | 1.24 µM and 3.59 µM | 16.3 | 7.63 µM and 34.3 µM | 20.7 | – | 1.81 | 1.86 µM and 3.65 µM | 2.92 | 1.46 µM and 5.41 µM | – | 29.5 | – | 11.6 µM | – | 12 µM | 0.721 | 43.6 µM and 16.1 µM | 0.759 | –
